From US8648105B2, “Diarylthiohydantoin compounds” (The Regents of the University of California, priority 2006, dated 2014)
Numbering of substitutions follows the chain as printed.

Columns and labels:
AR = target: T1, AR (Homo sapiens, UniProt P10275); assay type: cell-based; design: Fold induction, AR response reporter
T1 sequence (P10275 1-920): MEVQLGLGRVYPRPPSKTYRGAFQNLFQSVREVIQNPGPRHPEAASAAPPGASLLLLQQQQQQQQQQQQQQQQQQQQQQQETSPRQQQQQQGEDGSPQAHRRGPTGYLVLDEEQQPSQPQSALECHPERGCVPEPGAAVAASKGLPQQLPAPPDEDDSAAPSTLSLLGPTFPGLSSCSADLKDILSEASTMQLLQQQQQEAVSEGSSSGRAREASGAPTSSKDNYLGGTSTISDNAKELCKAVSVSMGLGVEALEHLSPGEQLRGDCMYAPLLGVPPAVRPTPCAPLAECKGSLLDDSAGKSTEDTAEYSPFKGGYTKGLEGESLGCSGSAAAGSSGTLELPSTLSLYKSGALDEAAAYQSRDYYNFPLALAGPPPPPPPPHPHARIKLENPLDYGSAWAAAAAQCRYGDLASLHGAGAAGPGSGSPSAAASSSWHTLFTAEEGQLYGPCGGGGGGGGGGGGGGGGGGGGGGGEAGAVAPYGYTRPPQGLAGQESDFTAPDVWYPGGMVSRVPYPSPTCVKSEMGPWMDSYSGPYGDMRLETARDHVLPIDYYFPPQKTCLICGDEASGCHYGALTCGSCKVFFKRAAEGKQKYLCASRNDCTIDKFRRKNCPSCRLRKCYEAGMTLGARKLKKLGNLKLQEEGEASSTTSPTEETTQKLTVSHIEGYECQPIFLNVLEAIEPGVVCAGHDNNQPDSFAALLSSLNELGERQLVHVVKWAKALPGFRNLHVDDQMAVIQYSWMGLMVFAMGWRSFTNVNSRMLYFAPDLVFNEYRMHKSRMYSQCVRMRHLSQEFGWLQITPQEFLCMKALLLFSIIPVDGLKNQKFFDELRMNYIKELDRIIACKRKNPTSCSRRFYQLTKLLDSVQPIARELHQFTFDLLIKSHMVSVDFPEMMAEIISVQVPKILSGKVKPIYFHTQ
Method: It is well established that PSA levels are indicators of AR activities in prostate cancer. […] The LNCaP-AR cells are a line of lymph node carcinoma of prostate cells transduced with a plasmid that makes express androgen receptors. […] After four days incubation, secreted PSA levels were assayed using PSA ELISA kits (American Qualex, San Clemente, Calif.)

[1] = target: T2, androgen receptor (AR) and RNA polymerase II (Pol II) (Homo sapiens, UniProt P10275, T878A); details: 10 uM, 6 hours, LNCaP
T2 sequence (P10275 1-920 T878A): T1 sequence (P10275 1-920) with T878A
Method: LNCaP (ATCC) cells were plated in full serum. On the day of the experiment, the plate was washed once with 1×PBS and 5% CSS was added for 3 days. […] Each of these compounds was added for 6 hours. In a fourth set of experiments, a control, no additional compound was added (−). 6 hours timepoint was run at 28 cycles.

[2] = tested on: LNCaP hormone sensitive xenograft; test: LNCaP hormone sensitive xenograft model
Method: Each set included 6 mice. The mice were treated with 10 mg/kg per day.

tumor = test: Dose regimens of NC53 on tumor volume and luciferase photon emission (FIGS. 17, 18); assay type: in vivo; details: for tumor size: FIG. 17
Source text: FIG. 17 illustrates that under treatment with vehicle solution, tumors continued to increase in size.

[3] = tested on: LN-AR(HR) cell line tumors; test: LN-AR(HR) cell line tumors in SCID mice (FIG. 19); assay type: in vivo; details: 10 mg per kg body weight per day
Source text: (A) The relative tumor volume as a function of time shown for each set of mice. (B) Images of each set of mice with photon emission associated with luciferase activity at day 31 shown as color contours. (C) Rate of photon emission associated with luciferase activity shown at several times for each set of mice.

androgen receptor = target: T3, androgen receptor (Homo sapiens, UniProt P10275, T878A); details: 10 uM (R1881 1 nM), LNCaP
T3 sequence (P10275 1-920 T878A): T1 sequence (P10275 1-920) with T878A

LIAR cell line = test: Luciferase activity of the LIAR cell line (FIG. 25); assay type: cell-based; details: 125 nmol to 1000 nmol
Source text: FIG. 25 is a graph of luciferase activity of the LIAR cell line dosed with various compounds administered at concentrations ranging from 125 nmol to 1000 nmol.
The inventors have determined that what might appear to be a small change in the structure of hydantoin compounds may result in a large change in that compound's performance in treating prostate cancer.

For `CNC(=O)c1ccc(N2C(=S)N(c3ccc(C#N)c(C(F)(F)F)c3)C(=O)C23CCC3)cc1F` [NC53, N-methyl-4-[7-(4-cyano-3-trifluoromethylphenyl)-8-oxo-6-thioxo-5,7-diaza-spiro[3.4]oct-5-yl]-2-fluorobenzamide], the “PSA levels of LN-AR cells” value (AR; 100, 200, 500, and 1000 nM, FIG. 20) was “PSA levels of LN-AR cells decreased”, the PSA levels (AR; LN-AR cells, FIG. 23) was “PSA levels decreased” and the “AR and Pol II recruitment to PSA enhancer and PSA promoter” value [1] was “prevented androgen receptor (AR) recruitment and RNA polymerase II (Pol II) recruitment to PSA enhancer and to PSA promoter”. The “rate of tumor growth (tumor volume)” value ([2]; 10 mg/kg per day, FIG. 6) was “slower than mice treated with vehicle solution”, the PSA levels ([2]; FIG. 16, relative to vehicle solution) was “PSA levels decreased” and the tumor size (tumor; 1 mg per kg body weight per day) was “the rate of tumor increase decreased, and the size of the tumor appeared to be stabilizing after about 17 days”. For the same molecule, the tumor size (tumor; 10 mg per kg body weight per day) was “tumor size decreased with time”, the “photon emission associated with luciferase activity” value (tumor; 10 mg per kg body weight per day, day 17 vs day 0, FIG. 18) was “photon emission associated with luciferase activity decreased” and the “tumor size and photon emission associated with luciferase activity” value [3] was “decrease or stabilization of tumor size and a decrease in photon emission associated with luciferase activity”. The “androgen receptor nuclear translocation” value (androgen receptor) was “inhibited androgen receptor nuclear translocation” and the “luciferase activity (comparison)” value (LIAR cell line) was “less than the luciferase activity upon exposure to NC98”.
